Results: patent publication US20080138853A1, “Method for evaluating the degree of maturity of corneocytes” (priority 2000, published 2008)

Legend:
[1] = system: horny layer of upper arm inside (cornified envelope); experiment: Involucrin-positive CE in experimental rough skin on the inside of the upper arm; format: in vivo, human; conditions: SDS-induced experimental rough skin, 3 to 4 specimens, non-treated group 0.09 ± 0.04
Source text: A cellophane adhesive tape was adhered on a face (cheek) and an upper arm of an examinee having skin troubles such as rough skin and immediately peeled off. […] The insoluble substances thus obtained was CE.
A result obtained by staining CE originating in the face of a person troubled with rough skin in the manner described above is shown in FIG. 1 (drawing substitute photograph), and shown in FIG. 2 (drawing substitute photograph) is a result obtained by staining CE originating in a horny layer obtained by experimental rough skin induced by sodium dodecylsulfate (SDS) processing or tape stripping on inside of upper arm without any skin troubles.
Further, the proportions of the involucrin-positive CE's in the SDS treated group and the tape stripping group in the experimental rough skin described above are shown in Table 1 in comparison with that of the involucrin-positive CE in the non-processed group (each 3 to 4 specimens).

[2] = system: human epidermal keratinocytes; experiment: CE formation-promoting effect in cultured epidermal keratinocytes (involucrin immunostaining and Nile Red staining of CE); format: cell-based; conditions: 100 μM fatty acid in MEM containing 0.1% bovine serum albumin, confluent keratinocytes, cultured one week; growth medium control 15.83 ± 3.49
Source text: Further, culture was continued for one week. […] The insoluble substances thus obtained were CE.

Structure (SMILES): CCCCCCCCCCCCOS(=O)(=O)[O-].[Na+] [SDS, sodium dodecylsulfate]
- Proportion of involucrin-positive CE (%) average ± SD [1]: 6.21 ± 2.96%

Structure (SMILES): CCCCCCCC/C=C\CCCCCCCC(=O)O [oleic acid]
- Proportion of involucrin-positive CE (%) average ± SD [2]: 0 (not detected) %

Structure (SMILES): CCCCC/C=C\C/C=C\CCCCCCCC(=O)O [linoleic acid]
- Proportion of involucrin-positive CE (%) average ± SD [2]: 0 (not detected) %
